Here are results for twelve molecules from patent US9975900B2, “Substituted imidazo[1,2-α]pyrazines for treating spinal muscular atrophy” (Hoffmann-La Roche Inc., priority 2014, dated 2018).

The subject of test [1] is SMN protein in SMA patient fibroblast cells (GM03813). Put plainly: SMN protein assay (HTRF) in cultured cells. The test is classed as cell-based. As to conditions: Homo sapiens, SMA Type 1 patient fibroblasts, 48 hours; for EC (1.5-fold): 7-point concentration curve, concentration giving 1.5 times SMN protein vs vehicle, read-out: EC1.5x SMN protein (EC1.5x concentration for SMN protein expression); for maximal fold induction: fold increase relative to vehicle control, read-out: Max. fold increase of SMN protein. Summed up: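 SMA patient fibroblasts (5,000 cells/well, DMEM-10% FBS) treated 48 h at 37 °C with 7-point, 3.16-fold dilutions, in triplicate. Lysates (RIPA) read overnight by HTRF with anti-SMN d2/cryptate at 665/620 nm. ΔF versus blank gives fold increase over vehicle, from which EC1.5× and maximum fold increase are derived.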
In general terms: TR-FRET usually uses a lanthanide donor and a delayed reading to cut background.

The test system of test [2] is full length SMN2 minigene mRNA (HEK293H cells stably transfected with the SMN2-A minigene construct). Nature of the test: RT-qPCR assay for SMN2 minigene pre-mRNA splicing in cultured cells. The test is classed as cell-based. As to conditions: Homo sapiens, HEK293-H, 24 hours, 7-point concentration curve, concentration giving 1.5-fold FL SMN2mini mRNA vs vehicle, read-out: EC1.5x minigene (EC1.5x concentration for production of full length SMN2 minigene mRNA). The gist of the method: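 HEK293H cells stably carrying SMN2-A minigene were treated 24 h at 37 °C with a 7-point, 3.16-fold compound series, in duplicate. Minigene-specific exon 7–exon 8 mRNA measured by multiplex RT-qPCR with GAPDH normalisation; fold over vehicle by modified ΔΔCt, reported as EC1.5×.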

Molecules are shown by their SMILES. Counter-ions that a name gives are not always drawn.

For `Cc1cn2cc(NC(=O)c3c(F)cc(N4CCN5CCC[C@H]5C4)cc3F)nc(C)c2n1` [Example 18, 4-[(8aS)-3,4,6,7,8,8a-hexahydro-1H-pyrrolo[1,2-a]pyrazin-2-yl]-N-(2,8-dimethylimidazo[1,2-a]pyrazin-6-yl)-2,6-difluorobenzamide], in test [1], the EC (1.5-fold) came out at 0.117 µM and the maximal fold induction amounted to 1.75. Also, the EC (1.5-fold) in test [2] was found to be 0.0234 µM.
For `Cc1cn2cc(NC(=O)c3ccc(N4C[C@@H](C)N[C@@H](C)C4)cc3F)nc(C)c2n1` [Example 19, N-(2,8-dimethylimidazo[1,2-a]pyrazin-6-yl)-4-[(3R,5S)-3,5-dimethylpiperazin-1-yl]-2-fluorobenzamide], in that order: 0.0274 µM, 1.71 and 0.003 µM.
Consider `Cc1cn2cc(NC(=O)c3ccc(N4CCNC(C)(C)C4)cc3F)nc(C3CC3)c2n1` [Example 37, N-(8-cyclopropyl-2-methylimidazo[1,2-a]pyrazin-6-yl)-4-(3,3-dimethylpiperazin-1-yl)-2-fluorobenzamide hydrochloride], for which, in test [1], the EC (1.5-fold) amounted to 0.287 µM and the maximal fold induction worked out at 1.72. Besides, the EC (1.5-fold) in test [2] was found to be 0.0317 µM.
For `CCOc1cc(N2CCN[C@@H](C)C2)ccc1C(=O)Nc1cn2cc(C)nc2cn1` [Example 4, 2-ethoxy-N-(2-methylimidazo[1,2-a]pyrazin-6-yl)-4-[(3S)-3-methylpiperazin-1-yl]benzamide], in that order: 0.122 µM, 1.92 and 0.0263 µM.
The matching figures for `CC[C@@H]1CN(c2ccc(C(=O)Nc3cn4cc(C)nc4cn3)c(OC)n2)CCN1` [Example 46, 6-[(3R)-3-ethylpiperazin-1-yl]-2-methoxy-N-(2-methylimidazo[1,2-a]pyrazin-6-yl)pyridine-3-carboxamide hydrochloride]: 0.58 µM, 1.67 and 0.189 µM.
For `CC[C@@H]1CN(c2ccc(C(=O)Nc3cn4cc(C)nc4cn3)c(F)c2)CCN1` [Example 32, 4-[(3R)-3-ethylpiperazin-1-yl]-2-fluoro-N-(2-methylimidazo[1,2-a]pyrazin-6-yl)benzamide hydrochloride], in that order: 0.126 µM, 1.81 and 0.0268 µM.
Regarding `COc1nc(N2CCNCC2)ccc1C(=O)Nc1cn2cc(C)nc2cn1` [Example 47, 2-methoxy-N-(2-methylimidazo[1,2-a]pyrazin-6-yl)-6-piperazin-1-ylpyridine-3-carboxamide hydrochlorid], the EC (1.5-fold) in test [1] worked out at 0.551 µM; in test [2], 0.129 µM. The maximal fold induction in test [1] came to 1.64.
For `CCc1nc(NC(=O)c2ccc(N3CCN4CCC[C@H]4C3)cc2F)cn2cc(C)nc12` [Example 16, 4-[(8aS)-3,4,6,7,8,8a-hexahydro-1H-pyrrolo[1,2-a]pyrazin-2-yl]-N-(8-ethyl-2-methylimidazo[1,2-a]pyrazin-6-yl)-2-fluorobenzamide], in that order: 0.237 µM, 0.0314 µM and 1.72.
The matching figures for `Cc1cn2cc(NC(=O)c3ccc(N4CCN5CCC[C@@H]5C4)cc3F)nc(C3CC3)c2n1` [Example 22, 4-[(8aR)-3,4,6,7,8,8a-hexahydro-1H-pyrrolo[1,2-a]pyrazin-2-yl]-N-(8-cyclopropyl-2-methylimidazo[1,2-a]pyrazin-6-yl)-2-fluorobenzamide]: 0.66 µM, 0.0952 µM and 1.5.
For `Cc1cn2cc(NC(=O)c3ccc(N4CC[C@H](N5CCCC5)C4)cc3F)ncc2n1` [Example 24, 2-fluoro-N-(2-methylimidazo[1,2-a]pyrazin-6-yl)-4-[(3S)-3-pyrrolidin-1-ylpyrrolidin-1-yl]benzamide], in that order: 0.113 µM, 0.051 µM and 1.75.
In the case of `Cc1cn2cc(NC(=O)c3ccc(N4CCN[C@H](C)C4)cc3F)nc(C(F)(F)F)c2n1` [Example 43, 2-fluoro-4-[(3R)-3-methylpiperazin-1-yl]-N-[2-methyl-8-(trifluoromethyl)imidazo[1,2-a]pyrazin-6-yl]benzamide], in test [1], the EC (1.5-fold) was 0.087 µM and the maximal fold induction is 1.76. Moreover, in test [2], the EC (1.5-fold) was found to be 0.04 µM.
For `Cc1cn2cc(NC(=O)c3ccc(N4CCN[C@H](C)C4)cc3F)nc(C)c2n1` [Example 11, N-(2,8-dimethylimidazo[1,2-a]pyrazin-6-yl)-2-fluoro-4-[(3R)-3-methylpiperazin-1-yl]benzamide], in that order: 0.0522 µM, 1.8 and 0.0164 µM.
